How the values were obtained:
Assay in all cases: relative viability (nuclei count vs DMSO), 5 days (fraction); higher = more cells survive
[1] = compound: CCN(CCO)CCCC(C)Nc1ccnc2cc(Cl)ccc12 [Hydroxychloroquine] + Nc1nc2[nH]cc(CCc3ccc(C(=O)N[C@@H](CCC(=O)O)C(=O)O)cc3)c2c(=O)[nH]1 [Pemetrexed] (partner 0.2 µM)
Method in brief: (§1)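 One day after seeding in 1536-well plates, lung cancer cell lines were dosed by pin tool. Dosing was either single-drug or a fixed anchor-drug dose plus five library-drug doses (not always all listed) in √10 steps. After 5 days, nuclei were stained in one fix-and-stain step and counted on 4× images, and relative viability is the nuclei count of treated wells over that of vehicle wells, given as the median of duplicate plates.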

[2] = compound: CCN(CCO)CCCC(C)Nc1ccnc2cc(Cl)ccc12 [Hydroxychloroquine] + CS(=O)(=O)CCNCc1ccc(-c2ccc3ncnc(Nc4ccc(OCc5cccc(F)c5)c(Cl)c4)c3c2)o1 [Lapatinib] (partner 2 µM)
Method in brief: as §1

[3] = compound: CCN(CCO)CCCC(C)Nc1ccnc2cc(Cl)ccc12 [Hydroxychloroquine] + C[C@@H](Oc1cc(-c2cnn(C3CCNCC3)c2)cnc1N)c1c(Cl)ccc(F)c1Cl [Crizotinib] (partner 1 µM)
Method in brief: as §1

[4] = compound: CCN(CCO)CCCC(C)Nc1ccnc2cc(Cl)ccc12 [Hydroxychloroquine] + Cc1nc(Nc2ncc(C(=O)Nc3c(C)cccc3Cl)s2)cc(N2CCN(CCO)CC2)n1 [Dasatinib] (partner 0.075 µM)
Method in brief: as §1

Cell Line	relative viability ([1]; first compound 0.5 µM)	relative viability ([1]; first compound 1.581 µM)	relative viability ([1]; first compound 5 µM)	relative viability ([1]; first compound 15.81 µM)	relative viability ([1]; first compound 50 µM)	relative viability ([2]; first compound 0.5 µM)	relative viability ([2]; first compound 1.581 µM)	relative viability ([2]; first compound 5 µM)	relative viability ([2]; first compound 15.81 µM)	relative viability ([2]; first compound 50 µM)	relative viability ([3]; first compound 0.5 µM)	relative viability ([3]; first compound 1.581 µM)	relative viability ([3]; first compound 5 µM)	relative viability ([3]; first compound 15.81 µM)	relative viability ([3]; first compound 50 µM)	relative viability ([4]; first compound 0.5 µM)	relative viability ([4]; first compound 1.581 µM)	relative viability ([4]; first compound 5 µM)	relative viability ([4]; first compound 15.81 µM)	relative viability ([4]; first compound 50 µM)
NCI-H838	0.238	0.248	0.264	0.243	0.253	1.07	1.02	1.03	0.923	1.12	0.805	0.8	0.823	0.829	0.974	0.256	0.258	0.296	0.242	0.237
NCI-H1355	1.11	0.997	0.906	1.05	1.14	1.03	0.88	1.02	0.887	1.06	1.08	1.01	1.11	1.08	1.1	0.74	0.59	0.693	0.705	0.875
NCI-H1975	0.281	0.325	0.309	0.297	0.301	0.989	0.867	0.874	0.891	1.18	1.05	1.08	0.926	1.06	1.15	0.404	0.376	0.322	0.502	0.412
LK-2	0.299	0.261	0.256	0.274	0.206	0.918	0.947	0.883	1.03	1.04	0.246	–	0.198	0.181	0.197	0.258	0.261	–	0.294	0.357
NCI-H727	–	–	–	–	–	0.893	0.842	0.699	0.814	0.931	0.839	0.815	0.804	0.908	0.885	0.337	0.379	0.471	0.43	0.457
EBC-1	–	–	–	–	–	0.212	0.183	0.213	0.225	0.182	0.196	0.181	0.181	0.189	0.189	–	–	–	–	–
HCC-44	0.635	0.709	0.653	0.655	0.659	0.989	1.07	1.08	1.06	1.04	0.821	0.804	0.87	0.829	1.01	–	–	–	–	–
NCI-H1648	0.844	0.785	0.734	0.859	0.694	–	–	–	–	–	–	–	–	–	–	–	–	–	–	–
SW 900	0.43	0.47	0.448	0.457	0.444	–	–	–	–	–	–	–	–	–	–	0.586	0.574	0.671	0.528	0.559
ABC-1	–	–	–	–	–	0.987	1.09	1.13	1.43	1.23	1.13	0.981	1.46	1.2	1.09	0.543	0.644	0.521	0.562	0.565
NCI-H441	0.234	0.258	0.284	0.227	0.278	–	–	–	–	–	0.624	0.824	0.92	0.734	0.663	0.608	0.559	0.66	0.496	0.684
NCI-H1793	0.982	0.913	0.753	0.628	0.632	0.57	0.556	0.649	0.603	0.691	–	–	–	–	–	0.464	0.36	0.423	0.413	0.476
NCI-H1395	0.83	0.936	0.717	0.793	0.779	1.25	1.09	0.907	0.877	0.955	–	–	–	–	–	0.424	0.402	0.401	0.391	0.405
NCI-H1299	–	–	–	–	–	0.965	0.914	0.903	0.919	0.936	0.999	0.937	0.91	0.98	0.693	–	–	–	–	–
ChaGo-K-1	0.417	0.259	0.291	0.262	0.276	–	–	–	–	–	1.05	1.14	1.16	1.51	1.24	0.626	0.593	0.537	0.593	0.626
NCI-H522	1.02	–	1.39	0.974	0.98	–	–	–	–	–	–	–	–	–	–	0.933	0.942	0.755	1.03	0.913
A549	–	–	–	–	–	0.976	0.859	0.906	0.974	0.977	0.832	0.643	0.781	0.735	0.805	–	–	–	–	–
IA-LM	–	–	–	–	–	0.863	1.09	0.862	0.869	0.795	0.839	0.95	0.898	0.718	0.899	–	–	–	–	–
LCLC-103H	0.439	0.504	0.368	0.455	0.473	–	–	–	–	–	1.03	1.01	0.951	1.04	1.14	0.367	0.405	0.523	0.547	0.543
Calu-6	–	–	–	–	–	1.05	1.18	0.991	1.02	1.01	0.84	0.855	0.847	0.896	0.579	–	–	–	–	–
